Tests used:
[1] = Radiometabolite analysis of blood and tissue in naïve rats; type: in vivo, rat; settings: for Parent fraction: population curve
Protocol: Arterial blood samples were collected at 2, 5, 10, 20, 30, 60, and 120 min after radiotracer injection (69.7 ± 9.1 MBq [mean ± SEM], n = 17 rats), and heart, lung, and brain tissue samples were collected at 60 and 120 min. Blood and tissues were processed as detailed in the supplemental materials.
(§1) Invasive Input Function Measurement
Polyethylene catheters (PE50) filled with heparinized saline (20 IU/mL) were inserted into the left femoral artery and vein with the help of a stereomicroscope and securely fastened with ligatures (6-0 silk thread). […]
(§2) Radiometabolite Blood and Tissue Processing and Analysis
(§3) All blood samples were 1 mL each and manually collected from different animals to generate a population curve, in order to respect total blood volume limits for terminal arterial blood collections in rats. Following blood and tissue collection, all samples were […]
kept on ice until analyzed. Radioactivity in whole blood and plasma, as well as homogenized tissue samples, was assessed using a well-type γ-counter using a 400– 1400 keV window (Perkin Elmer Wizzard2, USA). Plasma samples (400 μl) and tissue samples (500 μl) were processed by acetonitrile denaturation (1:1.4 v/v) and analyzed by HPLC (Ultimate2000, ThermoFisher, UK) on a Luna C18(2) 10×250 mm, 10 μm column (Phenomenex, UK) with acetonitrile/water 70/30 and flow rate of 4 mL/min to estimate the […]
parent fraction. […]

TSPO = target: T1, TSPO (Rattus norvegicus, UniProt P16257); assay: PET/CT imaging and kinetic modelling in rat MI model, day 7; type: in vivo; design: k4 (2T analysis), mean / K1 (2T analysis), mean / k2 (2T analysis), mean / k3 (2T analysis), mean: unit not given here; settings: for K1 (2T analysis), mean / VT (2T analysis), mean / k2 (2T analysis), mean / k3 (2T analysis), mean / k3/k4 (2T analysis), mean / k4 (2T analysis), mean: MI n = 9
T1 construct: Thirty-three adult male Sprague–Dawley rats; from tissue; host or cells: living adult male Sprague-Dawley rats; heart, LV anterior wall, lung and brain VOIs
Protocol: For MI studies, anesthesia was induced and maintained using isoflurane (0.5%–3% in oxygen, 1 L/min) before buprenorphine (0.05 mg/kg; Alstoe Ltd.) was administered preoperatively for analgesia. Tracheal intubation was achieved under direct vision, and ventilation was maintained with a rodent ventilator (model 683 [Harvard Apparatus]; tidal volume, 2.5 cm^3; respiratory rate, 60/min). MI was induced as we have previously described ([18]), and further details can be found in the supplemental materials. Animals were imaged within 1 d of day 7 after MI, referred to as day 7 throughout the article.
Thirty-two PET scans were performed with ^18F-LW223 (17.8 ± 1.5 MBq, intravenous bolus, mean ± SEM). Naïve and MI rat scans were acquired immediately after intravenous bolus injection of ^18F-LW223. […] Dosimetry studies were conducted using mice and 240-min PET scans.
Reconstructed scans were imported into PMOD, version 3.8 (PMOD Technologies). Volumes of interest (VOIs) were manually drawn around the brain, heart, and lung using CT images. To sample the infarct area (or an equivalent area in naïve hearts), averaged PET images (0–120 min) were used to place 3 spheric VOIs at the center of the infarct territory within the ventricular wall (1.5 mm^3). […] Time–activity curves were generated, and SUVs were calculated as concentration in the VOI divided by injected dose divided by animal weight. Kinetic modeling was performed using the 2-tissue-compartment model to estimate the kinetic rate constants K1–k4 and the total volume of distribution (VT) in different tissues. Blood volume fraction (VB) was not modeled in this study. Two-tissue-compartment modeling was selected as the preferred model on the basis of a comparison of goodness and robustness of fitting versus several other models (Supplemental Fig. 3; Supplemental Table 2). The binding potential relative to nondisplaceable volume (BPND) was defined as k3/k4 ([19]). The transfer-corrected BPND, termed BPTC, was formulated as follows:Eq. 1 BPTC=k3/k4÷K1, […]
where k3 is the radiotracer association rate with specific binding, k4 is the dissociation rate constant of target ligand, and K1 is the rate constant for transfer from arterial plasma to tissues. When tissue blood flow is impaired, such as after MI, K1→blood flow, as per the Renkin–Crone equation:Eq. 2 K1=F×E=F (1−e^− PS/F), […]
as §1
Polyethylene catheters (PE50) filled with heparinized saline (20 IU/mL) were inserted into the left femoral artery and vein with the help of a stereomicroscope and securely fastened with ligatures (6-0 silk thread). Catheters were held in place with […]
Rat Myocardial Infarction Procedure
Briefly, the skin was incised at the level of the left third and fourth ribs where the pectoral muscles were divided and retracted. Left lateral thoracotomy was then performed. With minimal handling, the pericardium was ruptured and the heart gently exteriorized from the thorax, and a nonabsorbable 5-0 ligature was placed around the left anterior descending coronary artery just above the bifurcation of the first diagonal and maneuvered back into position. Before wound closure, a drain was inserted to assist with removal of air and fluid from the thorax. Once removed, the wound was then closed in three layers. Animals were recovered and extubated once spontaneous ventilation was established, housed at 30 °C for 24 hours and given sterile sodium chloride 0.9% 0.01 mL/g fluid therapy subcutaneously in addition to another dose of Buprenorphine. After 24 hours, normal housing conditions were resumed.
as §2, §3

## CC[C@@H](C)N(C)C(=O)c1nc2ccccc2c(-c2ccccc2)c1C[18F] [^18F-LW223]
[1]; 2 min
  Parent fraction: 0.95
[1]; 5 min
  Parent fraction: 0.82
[1]; 10 min
  Parent fraction: 0.81
[1]; 20 min
  Parent fraction: 0.81
[1]; 30 min
  Parent fraction: 0.77
[1]; 120 min
  Parent fraction: 0.69
[1]; rat, 60 and 120 min after administration
  radiometabolites in brain, heart, and lung: less than 12.7%
[1]; used for input function correction
  plasma to whole blood ratio: 1.84
TSPO; Brain
  K1 (2T analysis), mean: 0.17
  VT (2T analysis), mean: 2.21
  k2 (2T analysis), mean: 0.19
  k3 (2T analysis), mean: 0.023
  k3/k4 (2T analysis), mean: 1.42
  k4 (2T analysis), mean: 0.02
TSPO; Global Heart
  K1 (2T analysis), mean: 0.58
  VT (2T analysis), mean: 12.57
  k2 (2T analysis), mean: 0.36
  k3 (2T analysis), mean: 0.04
  k3/k4 (2T analysis), mean: 6.62
  k4 (2T analysis), mean: 0.01
TSPO; LV Anterior Wall
  K1 (2T analysis), mean: 0.25
  VT (2T analysis), mean: 13.62
  k2 (2T analysis), mean: 0.18
  k3 (2T analysis), mean: 0.025
  k3/k4 (2T analysis), mean: 7.92
  k4 (2T analysis), mean: 0.01
TSPO; Lung
  K1 (2T analysis), mean: 1.08
  VT (2T analysis), mean: 10.43
  k2 (2T analysis), mean: 0.39
  k3 (2T analysis), mean: 0.046
  k3/k4 (2T analysis), mean: 2.49
  k4 (2T analysis), mean: 0.02
TSPO; MI cohort, infarct territory of anterior wall, 7 d after MI
  BPTC: 32.7 ± 5.0 cm^3/mL/min
TSPO; rat, in vivo
  reduction of K1 in LV anterior wall, MI vs naïve: 3.6 fold
  reduction of k2 in LV anterior wall, MI vs naïve: 1.4 fold
